Source: ChEMBL document CHEMBL4373734, “Overcoming imatinib resistance in chronic myelogenous leukemia cells using non-cytotoxic cell death modulators” (Eur J Med Chem, 2020)
Calls of active or inactive are those of the source. No cut-off for these calls is given here.

What was measured:
[1] = Cytotoxicity against human HS5 cells assessed as cell death at 10 uM after 72 hrs by propidium iodide/Triton-X100 dye based FACS analysis
[2] = system: COS-7; assay: Cytotoxicity against African green monkey COS7 cells assessed as effect on cell metabolic activity at 20 uM after 72 hrs by MTT assay; type: ADME, cell-based; details: chlorocebus aethiops, cos-7, 72 h
[3] = system: K562-IMA[r]; assay: Induction of sensitization to imatinib-induced cytotoxicity in imatinib-resistant human K562-IMA[r] cells assessed as induction of cell death at 10 uM after 72 hrs in presence of 1 uM imatinib by propidium iodide/Triton-X100 dye based FACS analysis (reference value: 15%); type: functional
[4] = system: K562-IMA[r]; assay: Cytotoxicity against imatinib-resistant human K562-IMA[r] cells assessed as induction of cell death at 10 uM after 72 hrs by propidium iodide/Triton-X100 dye based FACS analysis relative to control
[5] = system: K562-IMA[r]; assay: Induction of sensitization to imatinib-induced cytotoxicity in imatinib-resistant human K562-IMA[r] cells assessed as gain in cell death rate at 5 uM measured after 72 hrs in presence of 1 uM imatinib by propidium iodide/Triton-X100 dye based FACS analysis relative to imatinib-treated control; type: functional
[6] = system: K562-IMA[r]; assay: Induction of sensitization to imatinib induced cytotoxicity in imatinib-resistant human K562-IMA[r] cells assessed as cell death up to 2.5 uM measured after 72 hrs in presence of 1 uM imatinib by propidium iodide/Triton-X100 dye based FACS analysis; type: functional
[7] = Solubility of compound in DMSO at 10 uM by microscopic analysis; type: physicochemical
[8] = system: K562-IMA[r]; assay: Decrease in STAT5 expression in imatinib-resistant human K562-IMA[r] cells at 10 uM after 24 hrs in presence of 1 uM imatinib by Western blot analysis; type: functional, cell-based
[9] = molecular target: T1, Peroxisome proliferator-activated receptor gamma (Homo sapiens) (UniProt P37231); assay: Transactivation of Gal4-fused human PPARgamma transfected in COS7 cells co-transfected with pGAL5-TK-pGL3 and pRennilla-CMV assessed as maximum intrinsic activation at 10 uM incubated for 39 hrs by dual luciferase reporter assay relative to pioglitazone; type: cell-based
T1 sequence (whole entry): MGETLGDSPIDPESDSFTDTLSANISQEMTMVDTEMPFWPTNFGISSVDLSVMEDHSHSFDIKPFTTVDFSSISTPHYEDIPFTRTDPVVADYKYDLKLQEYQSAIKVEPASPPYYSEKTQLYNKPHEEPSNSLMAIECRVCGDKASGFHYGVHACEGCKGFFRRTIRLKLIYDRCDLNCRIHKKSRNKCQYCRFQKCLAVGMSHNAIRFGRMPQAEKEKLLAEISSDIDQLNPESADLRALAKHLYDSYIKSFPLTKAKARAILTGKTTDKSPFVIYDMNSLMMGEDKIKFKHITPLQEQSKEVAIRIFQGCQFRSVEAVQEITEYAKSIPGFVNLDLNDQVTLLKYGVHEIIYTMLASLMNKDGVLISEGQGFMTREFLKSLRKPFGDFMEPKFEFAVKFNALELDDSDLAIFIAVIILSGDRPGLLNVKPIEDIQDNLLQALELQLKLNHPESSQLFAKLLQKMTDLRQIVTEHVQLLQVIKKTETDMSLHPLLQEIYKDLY

[10] = system: K562; assay: Cytotoxicity against human K562 cells assessed as cell death at 10 uM after 72 hrs by propidium iodide/Triton-X100 dye based FACS analysis; details: k562, 72 h
[11] = Solubility of compound in water at >20 uM; type: physicochemical; details: buffer
[12] = molecular target: T1, Peroxisome proliferator-activated receptor gamma (Homo sapiens); assay: Transactivation of Gal4-fused human PPARgamma transfected in COS7 cells co-transfected with pGAL5-TK-pGL3 and pRennilla-CMV assessed as maximum intrinsic activation at 20 uM incubated for 39 hrs by dual luciferase reporter assay; type: cell-based
[13] = system: K562-IMA[r]; assay: Induction of sensitization to imatinib-induced cytotoxicity in imatinib-resistant human K562-IMA[r] cells assessed as induction of cell death measured after 72 hrs in presence of 1 uM imatinib by propidium iodide/Triton-X100 dye based FACS analysis; type: functional
[14] = system: K562-IMA[r]; assay: Cytotoxicity against imatinib-resistant human K562-IMA[r] cells assessed as cell death at 10 uM after 72 hrs by propidium iodide/Triton-X100 dye based FACS analysis
[15] = system: K562-IMA[r]; assay: Induction of sensitization to imatinib-induced cytotoxicity in imatinib-resistant human K562-IMA[r] cells assessed as induction of cell death at 10 uM after 72 hrs in presence of 1 uM imatinib by propidium iodide/Triton-X100 dye based FACS analysis; type: functional
[16] = system: K562-IMA[r]; assay: Induction of sensitization to imatinib-induced cytotoxicity in imatinib-resistant human K562-IMA[r] cells assessed as cell death at 0.1 to 10 uM measured after 72 hrs in presence of 1 uM imatinib by propidium iodide/Triton-X100 dye based FACS analysis; type: functional

**Q.** With `CCCc1nc2c(Br)cccc2n1Cc1ccc(-c2ccccc2C(N)=O)cc1` as the compound, how does the Activity [1] read?
**A.** The Activity was “Non-Toxic”.

**Q.** What about the Activity [2] of the same compound?
**A.** The Activity was “Non-Toxic”.

**Q.** What about the Activity [3] of the same compound?
**A.** Its Activity is 62 - 78%.

**Q.** What about the Activity [4] of the same compound?
**A.** The Activity was less than 20%.

**Q.** And the Activity [5]?
**A.** Its Activity is 21.4%.

**Q.** And the Activity [6]?
**A.** The Activity was “inactive”.

**Q.** What about the solubility [7] of the same compound?
**A.** Its solubility is “Soluble”.

**Q.** What about the Activity [8] of the same compound?
**A.** The Activity was “Active”.

**Q.** What about the Intrinsic activity [9] of the same compound?
**A.** Its Intrinsic activity is 20.8%.

**Q.** And the Activity [10]?
**A.** The Activity was “Non-Toxic”.

**Q.** And the solubility [11]?
**A.** The solubility was “Insoluble”.

**Q.** And the Intrinsic activity [12]?
**A.** The Intrinsic activity was “inactive”.

**Q.** And the Activity [13]?
**A.** Its Activity is “Dose-dependent effect”.

**Q.** For `CCCc1nc2ccccc2n1Cc1ccc(-c2ccccc2C(N)=O)cc1`, which Activity [1] is on record?
**A.** Its Activity is “Non-Toxic”.

**Q.** What about the Activity [2] of the same compound?
**A.** Its Activity is “Non-Toxic”.

**Q.** And the Activity [3]?
**A.** Its Activity is 62 - 78%.

**Q.** What about the Activity [4] of the same compound?
**A.** The Activity was less than 20%.

**Q.** What about the Activity [5] of the same compound?
**A.** The Activity was 16%.

**Q.** And the Activity [6]?
**A.** Its Activity is “inactive”.

**Q.** And the solubility [7]?
**A.** Its solubility is “Soluble”.

**Q.** And the Activity [8]?
**A.** The Activity was “Active”.

**Q.** And the Intrinsic activity [9]?
**A.** Its Intrinsic activity is 39.5%.

**Q.** What about the Activity [10] of the same compound?
**A.** The Activity was “Non-Toxic”.

**Q.** And the solubility [11]?
**A.** The solubility was “Insoluble”.

**Q.** And the Intrinsic activity [12]?
**A.** Its Intrinsic activity is “inactive”.

**Q.** And the Activity [13]?
**A.** Its Activity is “Dose-dependent effect”.

**Q.** What does the source list for `CCc1ccc(CCOc2ccc(CC3SC(=O)NC3=O)cc2)nc1` (centres undefined) [PIOGLITAZONE]?
**A.** Activity [14]: Non-Toxic; Activity [15]: Active; Activity [16]: inactive
